Reference: publication PMC7932537, “Quantitative profiling of protease specificity” (PLoS Computational Biology, 2021)

Legend:
MMP-2 = target: T1, MMP-2 (Homo sapiens, UniProt P08253); assay: K(obs) of individual phage substrates (set of 1369); format: biochemical; settings: MMP2
T1 sequence (P08253 110-660): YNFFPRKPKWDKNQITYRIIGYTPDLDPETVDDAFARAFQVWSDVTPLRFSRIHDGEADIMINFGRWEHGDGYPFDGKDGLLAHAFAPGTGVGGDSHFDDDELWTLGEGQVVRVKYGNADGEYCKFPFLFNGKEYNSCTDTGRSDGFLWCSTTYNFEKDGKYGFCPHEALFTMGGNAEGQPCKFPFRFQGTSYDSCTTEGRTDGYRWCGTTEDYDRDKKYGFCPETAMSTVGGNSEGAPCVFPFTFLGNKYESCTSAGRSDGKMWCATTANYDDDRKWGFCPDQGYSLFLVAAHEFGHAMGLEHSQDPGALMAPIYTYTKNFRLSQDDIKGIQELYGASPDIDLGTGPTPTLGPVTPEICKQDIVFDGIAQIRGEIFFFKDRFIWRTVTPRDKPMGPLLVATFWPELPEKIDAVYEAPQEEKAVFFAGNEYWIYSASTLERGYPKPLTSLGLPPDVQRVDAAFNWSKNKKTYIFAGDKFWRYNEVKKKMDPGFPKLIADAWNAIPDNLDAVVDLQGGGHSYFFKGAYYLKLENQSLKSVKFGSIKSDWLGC

MMP-9 = MMP-9 (Homo sapiens, UniProt P14780); assay: as above; format: biochemical; settings: MMP9, individual phage substrates, set of 1369 peptides
Chain of MMP-9 (P14780 94-707): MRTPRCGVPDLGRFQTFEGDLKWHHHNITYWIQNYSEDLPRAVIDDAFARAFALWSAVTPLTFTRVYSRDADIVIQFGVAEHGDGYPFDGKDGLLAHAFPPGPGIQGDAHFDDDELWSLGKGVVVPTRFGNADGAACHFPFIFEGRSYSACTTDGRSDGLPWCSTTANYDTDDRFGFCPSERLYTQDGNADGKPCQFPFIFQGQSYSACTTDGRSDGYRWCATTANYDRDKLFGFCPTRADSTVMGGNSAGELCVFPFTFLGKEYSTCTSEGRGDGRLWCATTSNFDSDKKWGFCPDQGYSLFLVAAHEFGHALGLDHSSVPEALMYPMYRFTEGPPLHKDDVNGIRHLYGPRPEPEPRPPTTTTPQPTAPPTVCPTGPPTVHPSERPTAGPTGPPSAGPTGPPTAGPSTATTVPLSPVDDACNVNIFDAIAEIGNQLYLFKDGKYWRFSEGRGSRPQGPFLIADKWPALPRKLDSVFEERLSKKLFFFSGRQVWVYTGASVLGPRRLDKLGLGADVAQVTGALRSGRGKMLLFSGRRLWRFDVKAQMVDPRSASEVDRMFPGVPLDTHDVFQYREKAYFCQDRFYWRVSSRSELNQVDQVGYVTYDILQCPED

[1] = individual phage substrate from the set of 1369 peptides, cleavage position marked by the dash in the sequence
[2] = dash in sequence marks cleavage position
[3] = individual phage substrates, set of 1369 peptides, cleavage position marked by '-' in the sequence
[4] = '-' marks the cleavage position (P1-P1')

| Kobs (MMP-2; [1]) [M⁻¹ s⁻¹] | Kobs (MMP-9; [2]) [M⁻¹ s⁻¹] | Kobs (MMP-2; [3]) [M⁻¹ s⁻¹] | Kobs (MMP-9; [4]) [M⁻¹ s⁻¹] | Substance |
| --- | --- | --- | --- | --- |
| – | – | 12792.1 | 8941.32 | SGTWP-LSGTA |
| – | – | 2476.66 | 10866.7 | SGPLT-LNSTA |
| – | – | 7386.83 | 4335.13 | SDIRW-LTASG |
| – | – | 0 | 0 | GPVMR-MSTAS |
| – | – | 1763.55 | 0 | GTMMS-LMTAS |
| – | – | 5667.28 | 12792.1 | FAAYS-LTASG |
| 201.585 | 836.403 | – | – | GAAWG-LNTAS |
| – | – | 0 | 0 | GSGNR-LMRLT |
| 0 | 0 | – | – | GGSGR-LRLAI |
| 56.119 | 0 | – | – | GKFAT-LVTAS |
| – | – | 12792.1 | 12792.1 | SSPLY-LTASG |
| 0 | 0 | – | – | SGALD-LKRTA |
| 0 | 292.668 | – | – | TWAKM-LTASG |
| – | – | 12792.1 | 10866.7 | FTPLN-MTASG |
| – | – | 1030.73 | 5667.28 | SGAFH-ILGTA |
| 6396.07 | 2097.28 | – | – | NSPQL-LTASG |
| 12792.1 | 12792.1 | – | – | KSPRM-LTASG |

Continued, substance first:

| Substance | Kobs (MMP-2; [1]) [M⁻¹ s⁻¹] | Kobs (MMP-9; [2]) [M⁻¹ s⁻¹] | Kobs (MMP-2; [3]) [M⁻¹ s⁻¹] | Kobs (MMP-9; [4]) [M⁻¹ s⁻¹] |
| --- | --- | --- | --- | --- |
| GSGWD-LKRST | 142.481 | 0 | – | – |
| DRIRH-LTASG | – | – | 6688.74 | 3964.21 |
| GTIFR-LTASG | – | – | 551.253 | 619.843 |
| GTIDL-LTTAS | – | – | 0 | 201.585 |
| GPMQR-LMTAS | – | – | 0 | 0 |
| CCSLA-LTASG | 551.253 | 386.839 | – | – |
| GQVRA-LRTAS | – | – | 12792.1 | 12792.1 |
| ARAQH-ITASG | 912.511 | 912.511 | – | – |
| TAVRS-LTASG | 12792.1 | 5889.62 | – | – |
| LPALN-MTASG | – | – | 1513.13 | 4335.13 |
| YLPRA-ITASG | – | – | 12792.1 | 12792.1 |
| WLAQA-LTASG | – | – | 12792.1 | 7815.03 |
| SGIWK-LTATA | – | – | 0 | 386.839 |
| RYPWA-LTASG | – | – | 8941.32 | 12792.1 |
| GGSGN-LIYWN | – | – | 231.616 | 142.481 |
| GGSGN-LTFLA | 451.441 | 0 | – | – |
| SGPLG-IFYTA | – | – | 12792.1 | 12792.1 |
| SGVMY-LQVTA | 0 | 654.784 | – | – |
| SGLAR-LSMTA | 0 | 0 | – | – |
| SAVRA-LTASG | – | – | 9740.44 | 7815.03 |
| GGSGA-LRVQL | – | – | 231.616 | 0 |
| SGVGM-LYNTA | 1373.05 | 0 | – | – |
| GWGDR-LTTAS | 1154.21 | 292.668 | – | – |
